From US20260199323A1, “LIGAND COMPOUNDS FOR E3 UBIQUITIN LIGASE, PROTEIN DEGRADERS DEVELOPED ON BASIS OF LIGAND COMPOUNDS, AND USES THEREOF” (GLUETACS THERAPEUTICS (SHANGHAI) CO., LTD., priority 2021, published 2026)
Like-named read-outs stand apart in the source and are kept apart here.

Legend:
Assay type in all cases: cell-based, Human
MV-4-11 = assay: CCK-8 tumor cell proliferation, MV-4-11; conditions: Homo sapiens, MV4-11, MV-4-11, read-out: IC50 inhibiting proliferation of tumor cells, MV-4-11
Protocol: The tumor cells used herein were cultured in a cell culture medium listed in table 4 at 37° C. in an incubator with 5% CO2. Prior to experimentation, all cells used were correctly identified by STR profiling, and tested negative for mycoplasma through routine screenings.
IC50 values of the compounds of the present disclosure (including the compounds in Tables 1 and 3, and compounds of examples) were measured using the Meilun Cell Counting Kit-8 kit from Dalian Meilun Biotech Co., Ltd. Assay details are as follows: tumor cells were seeded in a 96-well plate at a density listed in Table 5. After 24 h, 100 μL of the inoculated cells were treated with 0.5 μL of the compounds of the present disclosure (including the compounds in Tables 1 and 3, and compounds of examples) at 10 different successively decreasing concentrations (starting at the highest concentration of 10 μM; 5-fold serial dilutions). After the cells were treated with the compounds of the present disclosure for a period of time, the cell viability detection reagent was added to the culture medium for cell viability assessment according to the instructions provided with the CCK-8 kit. […] The growth inhibition of the compounds of the present disclosure on cells was plotted by Prism Graphpad software, and the IC50 values of the compounds of the present disclosure were calculated therefrom.

SR = assay: CCK-8 tumor cell proliferation, SR; conditions: Homo sapiens; Table 15, ALK inhibitor based; SR; read-out: IC50 inhibiting proliferation of tumor cells, SR
Procedure, shortened: (§1)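 Cell viability (CCK-8) after compound exposure; IC50 calculated. Cells seeded, treated after 24 h, maximum dose 10 μM, 5-fold serial dilutions over 10 concentrations.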

CCRF-CEM = assay: CCK-8 tumor cell proliferation, CCRF-CEM; conditions: Homo sapiens; Table 19, IRAK4 inhibitor based; CCRF-CEM; read-out: IC50 inhibiting proliferation of tumor cells, CCRF-CEM
Procedure, shortened: as §1

[1] = Table 19, IRAK4 inhibitor based

Row | IC50 (MV-4-11; Table 15, ALK inhibitor based) [nM] | IC50 (SR) [nM] | IC50 (MV-4-11; [1]) [nM] | IC50 (CCRF-CEM) [nM] | SMILES
1 | 100 to 500 | < 50 | – | – | CCc1cc2c(cc1N1CCC(N3CCN(Cc4ccc5c(c4F)CN(C4CCC(=O)NC4=O)C5=O)CC3)CC1)C(C)(C)c1[nH]c3cc(C#N)ccc3c1C2=O (stereo not drawn) [GT-03758, 8-(4-(4-((2-(2,6-dioxopiperidin-3-yl)-4-fluoro-1-oxoisoindolin-5-yl)methyl)piperazin-1-yl)piperidin-1-yl)-9-ethyl-6,6-dimethyl-11-oxo-6,11-dihydro-5H-benzo[b]carbazole-3-carbonitrile]
2 | 1000 to 5000 | < 50 | – | – | CCc1cc2c(cc1N1CCC(N3CCN(Cc4ccc5c(c4)C(=O)N(C4CCC(=O)NC4=O)C5=O)CC3)CC1)C(C)(C)c1[nH]c3cc(C#N)ccc3c1C2=O (stereo not drawn) [GT-03761, 8-(4-(4-((2-(2,6-dioxopiperidin-3-yl)-1,3-dioxoisoindolin-5-yl)methyl)piperazin-1-yl)piperidin-1-yl)-9-ethyl-6,6-dimethyl-11-oxo-6,11-dihydro-5H-benzo[b]carbazole-3-carbonitrile]
3 | 100 to 500 | < 50 | – | – | COc1cc(N2CCN(Cc3ccc4c(c3)CN(C3CCC(=O)NC3=O)C4=O)CC2)ccc1Nc1ncc(Cl)c(Nc2ccccc2P(C)(C)=O)n1 (stereo not drawn) [GT-03775, 3-(5-((4-(4-((5-chloro-4-((2-(dimethylphosphoryl)phenyl)amino)pyrimidin-2-yl)amino)-3-methoxyphenyl)piperazin-1-yl)methyl)-1-oxoisoindolin-2-yl)piperidine-2,6-dione]
4 | 100 to 500 | < 50 | – | – | COc1cc(N2CCN(Cc3ccc4c(c3F)CN(C3CCC(=O)NC3=O)C4=O)CC2)ccc1Nc1ncc(Cl)c(Nc2ccccc2P(C)(C)=O)n1 (stereo not drawn) [GT-03776, 3-(5-((4-(4-((5-chloro-4-((2-(dimethylphosphoryl)phenyl)amino)pyrimidin-2-yl)amino)-3-methoxyphenyl)piperazin-1-yl)methyl)-4-fluoro-1-oxoisoindolin-2-yl)piperidine-2,6-dione]
5 | 50 to 100 | < 50 | – | – | COc1cc(N2CCN(Cc3cc4c(cc3F)C(=O)N(C3CCC(=O)NC3=O)C4)CC2)ccc1Nc1ncc(Cl)c(Nc2ccccc2P(C)(C)=O)n1 (stereo not drawn) [GT-03777, 3-(5-((4-(4-((5-chloro-4-((2-(dimethylphosphoryl)phenyl)amino)pyrimidin-2-yl)amino)-3-methoxyphenyl)piperazin-1-yl)methyl)-6-fluoro-1-oxoisoindolin-2-yl)piperidine-2,6-dione]
6 | 100 to 500 | < 50 | – | – | COc1cc(N2CCN(Cc3cc(F)c4c(c3)CN(C3CCC(=O)NC3=O)C4=O)CC2)ccc1Nc1ncc(Cl)c(Nc2ccccc2P(C)(C)=O)n1 (stereo not drawn) [GT-03778, 3-(5-((4-(4-((5-chloro-4-((2-(dimethylphosphoryl)phenyl)amino)pyrimidin-2-yl)amino)-3-methoxyphenyl)piperazin-1-yl)methyl)-7-fluoro-1-oxoisoindolin-2-yl)piperidine-2,6-dione]
7 | – | – | 50 to 100 | < 50 | Cc1cc(-c2nc(C(=O)Nc3cc4oc(N5CCN(Cc6cc(F)c7c(c6)CN(C6CCC(=O)NC6=O)C7=O)CC5)nc4nc3N3CC[C@@H](O)C3)co2)ccn1 (stereo partly drawn) [GT-03843, N-(2-(4-((2-(2,6-dioxopiperidin-3-yl)-7-fluoro-1-oxoisoindolin-5-yl)methyl)piperazin-1-yl)-5-((R)-3-hydroxypyrrolidin-1-yl)oxazolo[4,5-b]pyridin-6-yl)-2-(2-methylpyridin-4-yl)oxazole-4-carboxamide]
8 | – | – | 500 to 1000 | – | Cc1cc(-c2nc(C(=O)Nc3cc4oc(N5CCN(Cc6ccc7c(c6)C(=O)N(C6CCC(=O)NC6=O)C7=O)CC5)nc4nc3N3CC[C@@H](O)C3)co2)ccn1 (stereo partly drawn) [GT-03845, N-(2-(4-((2-(2,6-dioxopiperidin-3-yl)-1,3-dioxoisoindolin-5-yl)methyl)piperazin-1-yl)-5-((R)-3-hydroxypyrrolidin-1-yl)oxazolo[4,5-b]pyridin-6-yl)-2-(2-methylpyridin-4-yl)oxazole-4-carboxamide]
